According to US20120115869A1, “TETRAZOLE DERIVATIVES” (MERCK SERONO S.A., priority 2009, published 2012):

Each compound was assayed against T1, CRTH2 (DP2) (Homo sapiens, UniProt Q9Y5Y4) (assay: Radioligand binding Scintillation Proximity Assay ([3H]PGD2, hCRTH2-CHO cell membranes)). Settings: 1.5 nM [3H]PGD2, hCRTH2-CHO cell membranes, SPA.
T1 construct: host or cells: CHO cells
T1 sequence (Q9Y5Y4 1-395): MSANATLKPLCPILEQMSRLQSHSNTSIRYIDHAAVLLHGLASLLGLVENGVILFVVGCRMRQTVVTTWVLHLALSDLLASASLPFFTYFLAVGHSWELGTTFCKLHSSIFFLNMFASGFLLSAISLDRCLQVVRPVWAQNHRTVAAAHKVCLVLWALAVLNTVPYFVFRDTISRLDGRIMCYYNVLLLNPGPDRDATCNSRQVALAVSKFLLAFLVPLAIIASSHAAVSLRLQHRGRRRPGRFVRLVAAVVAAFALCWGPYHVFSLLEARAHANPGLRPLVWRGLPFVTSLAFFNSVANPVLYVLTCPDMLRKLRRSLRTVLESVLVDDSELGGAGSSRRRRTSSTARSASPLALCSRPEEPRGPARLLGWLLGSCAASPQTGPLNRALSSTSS
Description: Adherent CHO cells expressing hCRTH2 (Euroscreen, Belgium) were cultured in 225 cm^2 cell culture flasks (Corning, USA) in 30 ml of medium. After two rinses of phosphate buffered saline (PBS), cells were harvested in 10 ml of PBS containing 1 mM EDTA, centrifuged at 500×g for 5 min at 4° C. and frozen at −80° C. The pellet was re-suspended in 50 mM Tris-HCl, pH 7.4, 2 mM EDTA, 250 mM Sucrose, containing protease inhibitor cocktail tablets, (Complete EDTA-free, Roche, Germany) and incubated 30 min at 4° C. Cells were disrupted by nitrogen cavitation (Parr Instruments, USA) at 4° C. (800 p.s.i. for 30 min), and centrifuged at 500×g for 10 min at 4° C. Pellet containing nuclei and cellular debris was discarded and supernatant was centrifuged 60 min at 4° C. at 45000×g. Membrane pellet was re-suspended in storage buffer (10 mM HEPES/KOH pH 7.4, 1 mM EDTA, 250 mM sucrose, protease inhibitor cocktail tablets) using Dounce homogenization and frozen in liquid nitrogen, and stored at 80° C.
Non-specific binding was determined in the presence of 10 μM PGD2 (Cayman, USA). Competing Compounds of Formula (I) were diluted in dimethylsulphoxide so that the total volume of dimethylsulfoxide was kept constant at 1% dimethylsulphoxide (Me2SO). Serial dilutions of […] were prepared and 10 μl each of the compounds of Formula (I) stock solutions were added to the binding assay reagents and incubated for 90 min with agitation at room temperature.
With `CCC(=O)N(Cc1cccc(-c2ccncc2)c1)c1cccc(-c2nnn[nH]2)c1` [Example 96, N-(3-pyridin-4-ylbenzyl)-N-[3-(1H-tetrazol-5-yl)phenyl]propanamide] the IC50 was 0.33 µM.
In the case of `CCC(=O)N(Cc1cccc(C#CC(C)(C)C)c1)c1cccc(-c2nnn[nH]2)c1` [Example 50, N-[3-(3,3-dimethylbut-1-yn-1-yl)benzyl]-N-[3-(1H-tetrazol-5-yl)phenyl]propanamide], the IC50 is reported as 1.3 µM.
Compound `CCC(=O)N(Cc1ccc2c(c1)OC(F)(F)O2)c1cc(Cl)cc(-c2nnn[nH]2)c1` [Example 103, N-[3-chloro-5-(1H-tetrazol-5-yl)phenyl]-N-[(2,2-difluoro-1,3-benzodioxol-5-yl)methyl]propanamide] has an IC50 of 0.013 µM.
In the case of `CCCCC(=O)N(Cc1ccc2c(c1)OCCO2)c1cc(-c2nnn[nH]2)c(F)cc1F` [Example 10, N-[2,4-difluoro-5-(1H-tetrazol-5-yl)phenyl]-N-(2,3-dihydro-1,4-benzodioxin-6-ylmethyl)pentanamide], the IC50 is reported as 0.054 µM.
In the case of `CCC(=O)N(Cc1cccc(-c2cnoc2)c1)c1cccc(-c2nnn[nH]2)c1` [Example 62, N-(3-isoxazol-4-ylbenzyl)-N-[3-(1H-tetrazol-5-yl)phenyl]propanamide], the IC50 is reported as 0.769 µM.
`CCCCC(=O)N(Cc1ccc2c(c1)OCCO2)c1cc(-c2nnn[nH]2)ccc1F` [Example 15, N-(2,3-dihydro-1,4-benzodioxin-6-ylmethyl)-N-[2-fluoro-5-(1H-tetrazol-5-yl)phenyl]pentanamide] showed an IC50 of 0.0042 µM.
`CCC(=O)N(Cc1ccc(O)cc1)c1cc(F)cc(-c2nnn[nH]2)c1` [Example 114, N-[3-fluoro-5-(1H-tetrazol-5-yl)phenyl]-N-(4-hydroxybenzyl)propanamide] gave an IC50 of 0.025 µM.
Compound `CCC(=O)N(Cc1ccc2c(c1)OCCO2)c1cccc(-c2nnn[nH]2)c1` [Example 20, N-(2,3-dihydro-1,4-benzodioxin-6-ylmethyl)-N-[3-(1H-tetrazol-5-yl)phenyl]propanamide] has an IC50 of 0.051 µM.
With `CCC(=O)N(Cc1cccc(OC(C)C)c1)c1cc(F)cc(-c2nnn[nH]2)c1` [Example 75, N-[3-fluoro-5-(1H-tetrazol-5-yl)phenyl]-N-(3-isopropoxybenzyl)propanamide] the IC50 was 0.0071 µM.
Work on `CCC(=O)N(Cc1ccc(-c2ccccc2)cc1)c1cc(F)cc(-c2nnn[nH]2)c1` [Example 97, N-(biphenyl-4-ylmethyl)-N-[3-fluoro-5-(1H-tetrazol-5-yl)phenyl]propanamide] yielded an IC50 of 0.07 µM.
In the case of `CCC(=O)N(Cc1ccncc1)c1cccc(-c2nnn[nH]2)c1` [Example 52, N-(pyridin-4-ylmethyl)-N-[3-(1H-tetrazol-5-yl)phenyl]propanamide], the IC50 is reported as 6.68 µM.
For `CCCC(=O)N(Cc1ccc2c(c1)OCCO2)c1cc(-c2nnn[nH]2)ccc1F` [Example 8, N-(2,3-dihydro-1,4-benzodioxin-6-ylmethyl)-N-[2-fluoro-5-(1H-tetrazol-5-yl)phenyl]butanamide], the IC50 was 0.0063 µM.
With `C#Cc1cccc(CN(C(C)=O)c2cc(-c3nnn[nH]3)ccc2F)c1` [Example 2, N-(3-ethynylbenzyl)-N-[2-fluoro-5-(1H-tetrazol-5-yl)phenyl]acetamide] the IC50 was 0.175 µM.
`CS(=O)(=O)c1ccc(CN(C(=O)C2CCOCC2)c2cc(F)cc(-c3nnn[nH]3)c2)cc1` [Example 118, N-[3-fluoro-5-(1H-tetrazol-5-yl)phenyl]-N-[4-(methylsulfonyl)benzyl]tetrahydro-2H-pyran-4-carboxamide] was tested, and the IC50 was 0.032 µM.
Compound `CCC(=O)N(Cc1ccc(-c2cn(C)nc2C)cc1)c1cc(F)cc(-c2nnn[nH]2)c1` [Example 88, N-[4-(1,3-dimethyl-1H-pyrazol-4-yl)benzyl]-N-[3-fluoro-5-(1H-tetrazol-5-yl)phenyl]propanamide] has an IC50 of 0.021 µM.
`CCOCC(=O)N(Cc1ccc(OC(F)(F)F)cc1)c1cc(Cl)cc(-c2nnn[nH]2)c1` [Example 67, N-[3-chloro-5-(1H-tetrazol-5-yl)phenyl]-2-ethoxy-N-[4-(trifluoromethoxy)benzyl]acetamide] gave an IC50 of 0.016 µM.
Work on `CCC(=O)N(Cc1cccc(OC(F)(F)F)c1)c1cccc(-c2nnn[nH]2)c1` [Example 42, N-[3-(1H-tetrazol-5-yl)phenyl]-N-[3-(trifluoromethoxy)benzyl]propanamide] yielded an IC50 of 0.245 µM.
With `Cc1ccc(CCC(=O)N(Cc2ccc(S(C)(=O)=O)cc2)c2cc(F)cc(-c3nnn[nH]3)c2)cc1` [Example 107, N-[3-fluoro-5-(1H-tetrazol-5-yl)phenyl]-3-(4-methylphenyl)-N-[4-(methylsulfonyl)benzyl]propanamide] the IC50 was 0.0029 µM.
With `CCC(=O)N(Cc1c(-c2ccccc2)noc1C)c1cccc(-c2nnn[nH]2)c1` [Example 23, N-[(5-methyl-3-phenylisoxazol-4-yl)methyl]-N-[3-(1H-tetrazol-5-yl)phenyl]propanamide] the IC50 was 2.96 µM.
Compound `CCC(=O)N(Cc1ccc(-c2ccccc2Cl)cc1)c1cc(F)cc(-c2nnn[nH]2)c1` [Example 98, N-[(2′-chlorobiphenyl-4-yl)methyl]-N-[3-fluoro-5-(1H-tetrazol-5-yl)phenyl]propanamide] has an IC50 of 0.031 µM.
Work on `CCC(=O)N(Cc1ccc(-c2cccc(S(=O)(=O)NCCO)c2)cc1)c1cc(F)cc(-c2nnn[nH]2)c1` [Example 92, N-[3-fluoro-5-(1H-tetrazol-5-yl)phenyl]-N-[(3′-{[(2-hydroxyethyl)amino]sulfonyl}biphenyl-4-yl)methyl]propanamide] yielded an IC50 of 0.16 µM.
`CCC(=O)N(Cc1c(C)noc1-c1ccccc1)c1cccc(-c2nnn[nH]2)c1` [Example 24, N-[(3-methyl-5-phenylisoxazol-4-yl)methyl]-N-[3-(1H-tetrazol-5-yl)phenyl]propanamide] was tested, and the IC50 was 2.18 µM.
For `CCC(=O)N(Cc1ccc2c(c1)OCO2)c1cccc(-c2nnn[nH]2)c1` [Example 34, N-(1,3-benzodioxol-5-ylmethyl)-N-[3-(1H-tetrazol-5-yl)phenyl]propanamide], the IC50 was 0.147 µM.
With `CCC(=O)N(Cc1ccc(-c2cccc(S(=O)(=O)N3CCOCC3)c2)cc1)c1cc(F)cc(-c2nnn[nH]2)c1` [Example 91, N-[3-fluoro-5-(1H-tetrazol-5-yl)phenyl]-N-{[3′-(morpholin-4-ylsulfonyl)biphenyl-4-yl]methyl}propanamide] the IC50 was 0.145 µM.
`CCC(=O)N(Cc1cccc(-c2c(C)noc2C)c1)c1cccc(-c2nnn[nH]2)c1` [Example 61, N-[3-(3,5-dimethylisoxazol-4-yl)benzyl]-N-[3-(1H-tetrazol-5-yl)phenyl]propanamide] showed an IC50 of 0.305 µM.
Work on `CCC(=O)N(Cc1cccc([S+]([O-])C(F)(F)F)c1)c1cc(F)cc(-c2nnn[nH]2)c1` (stereo not drawn) [Example 112, N-[3-fluoro-5-(1H-tetrazol-5-yl)phenyl]-N-{3-[(trifluoromethyl)sulfinyl]benzyl}propanamide] yielded an IC50 of 0.019 µM.
For `CCC(=O)N(Cc1ccc(-c2c(C)nn(C)c2C)cc1)c1cc(F)cc(-c2nnn[nH]2)c1` [Example 94, N-[3-fluoro-5-(1H-tetrazol-5-yl)phenyl]-N-[4-(1,3,5-trimethyl-1H-pyrazol-4-yl)benzyl]propanamide], the IC50 was 0.021 µM.
Compound `CCC(=O)N(Cc1ccc(-c2ccccc2C)cc1)c1cc(F)cc(-c2nnn[nH]2)c1` [Example 102, N-[3-fluoro-5-(1H-tetrazol-5-yl)phenyl]-N-[(2′-methylbiphenyl-4-yl)methyl]propanamide] has an IC50 of 0.0089 µM.
With `CCC(=O)N(Cc1ccc(OC(F)(F)F)cc1)c1cccc(-c2nnn[nH]2)c1` [Example 22, N-[3-(1H-tetrazol-5-yl)phenyl]-N-[4-(trifluoromethoxy)benzyl]propanamide] the IC50 was 0.132 µM.
`CCC(=O)N(Cc1cccc(-c2cn[nH]c2)c1)c1cc(F)cc(-c2nnn[nH]2)c1` [Example 101, N-[3-fluoro-5-(1H-tetrazol-5-yl)phenyl]-N-[3-(1H-pyrazol-4-yl)benzyl]propanamide] was tested, and the IC50 was 0.019 µM.
With `CS(=O)(=O)c1ccc(CN(C(=O)c2cccnc2)c2cc(F)cc(-c3nnn[nH]3)c2)cc1` [Example 116, N-[3-fluoro-5-(1H-tetrazol-5-yl)phenyl]-N-[4-(methylsulfonyl)benzyl]nicotinamide] the IC50 was 0.0046 µM.
`CCC(=O)N(Cc1ccc(OC(F)(F)F)cc1)c1cc(F)cc(-c2nnn[nH]2)c1` [Example 36, N-[3-fluoro-5-(1H-tetrazol-5-yl)phenyl]-N-[4-(trifluoromethoxy)benzyl]propanamide] showed an IC50 of 0.0093 µM.
Compound `CCC(=O)N(Cc1cccnc1)c1cccc(-c2nnn[nH]2)c1` [Example 51, N-(pyridin-3-ylmethyl)-N-[3-(1H-tetrazol-5-yl)phenyl]propanamide] has an IC50 of 6.75 µM.
